The values below come from patent publication US8992603B2, “Coated devices and method of making coated devices that reduce smooth muscle cell proliferation and platelet activity” (Nanocopoeia, Inc., priority 2007, dated 2015).

Each structure is given as a SMILES string. Read-outs that look alike come from different tables or passages of the source.

Data set [1] concerns macrophages. Put plainly: LPS-stimulated macrophage activation, nitric oxide release, isobologram. The class given is cell-based. To be noted: CalcuSyn, read-out: IC50 macrophage activation, individual treatments. The procedure: Macrophages were incubated with differing dose ratios of resveratrol:quercetin and were stimulated with LPS. Activation was assessed as increases in nitric oxide release. The IC50's for each dose ratio were calculated using CaluSyn software and were used to plot the isobologram. The line depicted above indicates the point at which additive responses are observed (C1=1). Points lying above the line indicate antagonism, whereas points below the line represent synergism.
Isobolograms for the determination of synergistic dose ratios for a resveratrol/quercetin combination. To determine the dose ratios for achieving maximal synergistic effects, activation in LPS-stimulated cells macrophages incubated with constant dose ratios of resveratrol and quercetin was measured. The IC50 for each dose ratio was calculated using CalcuSyn software, and these concentrations were used to construct an isobologram (FIG. 13). […] Briefly, CI=1 denotes additive effects, CI>1 denotes antagonism, and CI<1 indicates synergism.

For data set [2], the system named is VSMC. Put plainly: BrdU proliferation assay of VSMC with drug-eluting flats. The class given is cell-based. To be noted: 48 hours elution.
Experimental: Bare metal flats coated with resveratrol—(FIG. 17A) or quercetin—(FIG. 17B) containing arbIBS of either a closed or an open morphology were incubated in semi-permeable transwell inserts in plates containing VSMC. The bromodeoxyuridine (BrdU) incorporation assay for cell proliferation was conducted after 48 h of drug elution. […] The polyisobutylene-polystyrene triblock copolymers coated flats containing resveratrol or quercetin were incubated in semi-permeable transwell inserts in plates containing VSMC.
In data set [3] the test system is mouse carotid artery injury model. As to the kind of experiment: mouse carotid artery injury model, neointimal area. In kind it is in vivo. To be noted: female B6.129 mice, high fat diet, oral 50 mg/kg resveratrol, 10 mg/kg quercetin or both, 2 weeks before and 2 weeks after injury.
Experimental: FIG. 9 is a bar chart showing the effects of oral administration with 50 mg/kg resveratrol (RESV), 10 mg/kg quercetin (QUER), or resveratrol plus quercetin on neointimal areas in mice subjected to the carotid artery injury procedure. Values represent means+SEM. […] Neointimal area was determined by subtracting the luminal area from the area encircled by the internal elastic lamina. Determining whether quercetin potentiates the vascular protective effects of resveratrol in vivo, utilizing a mouse carotid artery injury model. Female B6.129 mice were administered a high fat diet, in some cases mixed together with 50 mg/kg resveratrol (RESV), 10 mg/kg quercetin (QUER), or resveratrol plus quercetin, for 2 weeks. The carotid artery injury procedure was conducted and the animals were fed the high fat diet plus polyphenols for an additional two weeks. The animals were then sacrificed, and the carotid arteries were excised and assessed for neointimal areas.
The test system of data set [4] is macrophages. Put plainly: LPS-stimulated macrophage activation, iNOS protein. The class given is cell-based.
Experimental: To test the efficacy of a resveratrol/quercetin combination in inhibiting the activation of macrophages, effects of polyphenol treatments either alone or in combination with quercetin were assessed in cultures of lipopolysaccharide (LPS) stimulated macrophages. Macrophage activation was determined by increases in protein levels of inducible nitric oxide synthase (iNOS) and by levels of reactive oxygen species (ROS).
The conditions of data set [5]: cited from earlier work.
The subject of data set [6] is platelet activation. As to the kind of experiment: thromboxane B2 levels in mouse carotid artery injury model. The class given is in vivo. The note with it: 4 weeks oral, 50 mg/kg resveratrol, 10 mg/kg quercetin or both, B6.129 mice.
Experimental: Plasma levels of thromboxane B2 (TBX2), a known marker for platelet activation, were assessed.
In data set [7] the test system is platelets. Put plainly: platelet activation, tritiated serotonin release after ADP. The class given is cell-based, human. The note with it: 3 h, 5 μM ADP. The procedure:
Values represent means+/−standard error.
To determine the efficacy of these compounds in reducing platelet activation, platelets isolated from healthy, male donors were incubated with resveratrol, quercetin, or resveratrol plus quercetin. The doses were selected based on prior studies.

Data set [8] concerns the target T1, ER-alpha (Homo sapiens, UniProt P03372).
T1 sequence (P03372 1-595): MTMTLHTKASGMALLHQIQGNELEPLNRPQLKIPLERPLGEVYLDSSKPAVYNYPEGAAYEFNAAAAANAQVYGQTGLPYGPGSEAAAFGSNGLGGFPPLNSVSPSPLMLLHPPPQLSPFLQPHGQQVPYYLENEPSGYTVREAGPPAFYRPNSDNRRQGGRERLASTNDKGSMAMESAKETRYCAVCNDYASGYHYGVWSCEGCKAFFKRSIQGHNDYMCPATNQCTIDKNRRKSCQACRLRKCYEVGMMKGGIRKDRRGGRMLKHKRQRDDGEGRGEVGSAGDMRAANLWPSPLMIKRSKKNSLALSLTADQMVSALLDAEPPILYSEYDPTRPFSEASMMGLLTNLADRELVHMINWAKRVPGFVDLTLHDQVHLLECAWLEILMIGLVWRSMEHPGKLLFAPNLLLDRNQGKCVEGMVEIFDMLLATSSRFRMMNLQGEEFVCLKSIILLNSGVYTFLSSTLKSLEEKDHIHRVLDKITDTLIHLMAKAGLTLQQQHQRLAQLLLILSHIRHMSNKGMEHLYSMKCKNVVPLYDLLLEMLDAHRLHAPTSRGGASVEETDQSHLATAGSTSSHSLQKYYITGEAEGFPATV
The note with it: same binding site as estradiol; cited from earlier work.

Data set [9] can be described thus: resveratrol release from polymer-coated flats (HPLC). The class given is physicochemical. How it is done:
Polymer coated flats were incubated in medium at 37° C. for 28 d. Resveratrol concentration in the medium was assessed at 2 d intervals using high performance liquid chromatography. The data are expressed as means+/−standard error for cumulative release in micromolar concentrations (FIG. 18A) compared to a percent of total drug loaded (FIG. 18B).
Determination of resveratrol release was performed using reversed phase high performance liquid chromatography (HPLC) coupled to a 4-channel Coularray electrochemical detector run at 590, 660, 730, and 800 mV. […] Establishing biocompatibility is a critical step in the development of the stent models.

The test system of data set [10] is NFκB. Put plainly: NFκB activation in vascular smooth muscle cells. In kind it is cell-based. The text has this: FIG. 3 is a bar chart showing the effect of resveratrol on NFκB activation in vascular smooth muscle cells
For data set [11], the system named is VSMC. As to the kind of experiment: VSMC proliferation (DNA synthesis, cell number). In kind it is cell-based. To be noted: Rattus norvegicus.

As for `O=c1c(O)c(-c2ccc(O)c(O)c2)oc2cc(O)cc(O)c12` [quercetin, 2-(3,4-dihydroxyphenyl)-3,5,7-trihydroxy-4H-1-benzopyran-4-one], the half-maximal inhibitory concentration (IC50) in [1] was 2.4 µM. In addition, in [2] (75 μg/cm^2, particulate (open) or smooth (closed) matrix), the “inhibition of VSMC proliferation” value is recorded as “significantly inhibited proliferation”. Also, the neointimal area result in data set [3] is “no significant effect”. Moreover, the “reduction of iNOS protein” value in data set [4] (10 μM quercetin) was around 75%; in data set [4] (15 μM quercetin), around 90%. Moreover, the solubility in water entry in data set [5] was “practically insoluble”. Also, the “reduction of plasma TXB2 levels” value in [6] was found to be 40%. Also, the “reduction of serotonin release” value in data set [7] (10-15 μM quercetin) is 40-50%.

As for `Oc1ccc(C=Cc2cc(O)cc(O)c2)cc1` [resveratrol], the half-inhibitory concentration (IC50) in data set [1] is 3.5 µM. The “inhibition of VSMC proliferation” value in data set [2] (smooth (closed) matrix, 100 μg/cm^2 loading) was “significantly inhibited proliferation”. Further, in [8], the binding affinity entry is given as “lower binding affinity than estradiol”. Besides, the neointimal area entry in [3] is recorded as “dramatically reduced”. Moreover, the “reduction of iNOS protein levels” value in data set [4] (18 μM resveratrol) is reported as around 25%. Besides, the “reduction of plasma TXB2 levels” value in data set [6] is “no significant effect”. Besides, the “total drug loaded that had eluted” value in data set [9] (at 28 days) was 5-10%. The “eluted concentration of resveratrol” value in [9] (medium 37° C., 28 d) is “low micromolar concentrations”. Moreover, in data set [9] (regardless of morphology, medium 37° C.), the “release from 100 mg/cm^2 coated flat relative to 50 mg/cm^2-coated flat” value was “approximately 4 fold”. In addition, the “inhibition of NFκB activation” value in data set [10] is given as “very potently”. The figures for the 50% effective concentration (EC50) in data set [11] (read-out: EC50 for inhibiting DNA synthesis) and in [11] (read-out: EC50 for reducing numbers of cells) were 18 µM and 25 µM, respectively. Also, the “reduction of serotonin release” value in [7] (18 μM resveratrol) is recorded as around 60%.

As usually defined, the IC50 is the concentration that inhibits the measured activity by half. The EC50 is the concentration at which the effect is half-maximal.
